This note sets out measurements from ChEMBL document CHEMBL4483862, “Open-source discovery of chemical leads for next-generation chemoprotective antimalarials” (2018).

A word on the IC50: it is the point on the concentration scale where inhibition reaches its midpoint. One may read the IC90 as the concentration needed for an effect of 90%.

For the assay, the system named is Plasmodium berghei. The experiment in a line: Luciferase/luciferin-expressing antifolate-resistant parasites were used to infect a culture of HepG2 cells that were pre-incubated with compounds. Infected hepatocytes emit light due to the luciferase reaction. Assay results are presented as the percent inhibition of light emission compared to control. […]. In kind it is functional. To be noted: sporozoite; for IC90: read-out: LUCIFERASE INFECTION ASSAY - IC90.

Where [1] appears, read: read-out: LUCIFERASE INFECTION ASSAY - IC50.

`NS(=O)(=O)c1ccc(CCNCC(=O)N2CCC(Cc3ccccc3)CC2)cc1`: the 90% effect concentration (IC90) was more than 10 µM. Moreover, under “HEPG2TOX_HILL_SLOPE 10, HEPG2TOX_R_SQUARED 0.966, PBLUC_HILL_SLOPE 4.42, PBLUC_R_SQUARED 0.274, read-out: LUCIFERASE INFECTION ASSAY - IC50”, the half-inhibitory concentration (IC50) was determined as 7.8 µM.
On to `Cc1nn2c(=O)c(Cc3ccccc3)c(C)[nH]c2c1-c1ccc(F)cc1`, for which the IC90 came out at 1.3 µM. The IC50 (HEPG2TOX_HILL_SLOPE 0.716, HEPG2TOX_R_SQUARED 0.984, PBLUC_HILL_SLOPE 2.69, PBLUC_R_SQUARED 0.765, read-out: LUCIFERASE INFECTION ASSAY - IC50) turned out to be 0.576 µM.
On to `Oc1ccc(Br)cc1/C=C/c1ccc2cccc(O)c2n1`, for which the IC90 was more than 9.64 µM. In addition, the IC50 (HEPG2TOX_HILL_SLOPE 9.84, HEPG2TOX_R_SQUARED 0.0138, PBLUC_HILL_SLOPE 10.3, PBLUC_R_SQUARED 0.574, read-out: LUCIFERASE INFECTION ASSAY - IC50) stood at 8.32 µM.
Regarding `O=C(Nc1cc(Cl)cc(Cl)c1)Nc1cccnc1N1CCC(C(F)(F)F)CC1`, the IC90 is 2.83 µM. Besides, the IC50 (HEPG2TOX_HILL_SLOPE 11.8, HEPG2TOX_R_SQUARED 0.784, PBLUC_HILL_SLOPE 19.7, PBLUC_R_SQUARED 0.439, read-out: LUCIFERASE INFECTION ASSAY - IC50) was 2.53 µM.
For `CCCc1cc(-n2ccnc2)n2ncc(-c3ccccc3)c2n1`, the IC90 was more than 10.9 µM. Also, the IC50 (PBLUC_HILL_SLOPE 1.29, PBLUC_R_SQUARED 0.543, read-out: LUCIFERASE INFECTION ASSAY - IC50) stood at 5.89 µM.
As for `CCCCN(CC(=O)N1CCCC(c2nc3ccccc3s2)C1)Cc1nc(=O)c2ccccc2[nH]1` (stereo not given), the IC90 is more than 10 µM. The IC50 (PBLUC_HILL_SLOPE 3.32, PBLUC_R_SQUARED 0.747, read-out: LUCIFERASE INFECTION ASSAY - IC50) was 6.35 µM.
Turning to `Cc1sc2ncnc(Sc3nnnn3-c3ccc(Cl)cc3)c2c1C`, the IC90 was more than 10 µM. Besides, under setting [1], the IC50 is more than 10 µM.
Regarding `O=C(Nc1ccc2c(c1)OCO2)c1cnc(N2CCN(Cc3ccc(Cl)cc3)C2=O)o1`, the IC90 is more than 10 µM. In addition, the IC50 (PBLUC_HILL_SLOPE 1.65, PBLUC_R_SQUARED 0.722, read-out: LUCIFERASE INFECTION ASSAY - IC50) is 3.79 µM.
`COc1cc(C)c(Nc2cc(-c3ccc(N(C)C)cc3)ncn2)cc1OC`: the IC90 came out at 0.48 µM. Further, the half-inhibitory concentration (IC50) (HEPG2TOX_HILL_SLOPE 1.1, HEPG2TOX_R_SQUARED 0.88, PBLUC_HILL_SLOPE 3.68, PBLUC_R_SQUARED 0.773, read-out: LUCIFERASE INFECTION ASSAY - IC50) was 0.264 µM.
As for `Cc1cc(C)nc(NNC(=S)NC(=O)C23CC4CC(CC(C4)C2)C3)n1`, the IC90 turned out to be 3.62 µM. Besides, the IC50 (HEPG2TOX_HILL_SLOPE 2.34, HEPG2TOX_R_SQUARED 0.811, PBLUC_HILL_SLOPE 12, PBLUC_R_SQUARED 0.36, read-out: LUCIFERASE INFECTION ASSAY - IC50) was 3.01 µM.
For the compound `O=C1C=CC(=O)N1c1ccc(-c2csnn2)cc1`, the IC90 was more than 12.8 µM. Also, for the setting “FFLUC_HILL_SLOPE 14.6, FFLUC_R_SQUARED 0.441, read-out: LUCIFERASE INFECTION ASSAY - IC50”, the IC50 is more than 12.8 µM.
Consider `CCn1cc(C(=O)N[C@@H](C)C(=O)OC)c(=O)c2cc3c(cc21)OCO3`, for which the IC90 was more than 9.53 µM. For the same compound, the IC50 (FFLUC_HILL_SLOPE 11.2, FFLUC_R_SQUARED 0.325, read-out: LUCIFERASE INFECTION ASSAY - IC50) was more than 9.53 µM.
As to `CCOc1ccc(/C=C/C(=O)C(C(N)=O)=C2SCCS2)cc1`, the IC90 is more than 10 µM. Further, the IC50 under setting [1] is more than 10 µM.
`O=C1C2=C(Nc3[nH]c(=O)[nH]c(=O)c3C2c2cccs2)c2ccccc21` (stereo not given): the 90% effect concentration (IC90) was more than 10 µM. For the setting “HEPG2TOX_HILL_SLOPE 0.543, HEPG2TOX_R_SQUARED 0.515, read-out: LUCIFERASE INFECTION ASSAY - IC50”, the IC50 is more than 10 µM.
Take `Cc1ccc2cc(COC(=O)/C(=C/c3ccccc3)n3nnnc3C)c(Cl)nc2c1`: the IC90 is more than 10 µM. Also, the IC50 (FFLUC_HILL_SLOPE 11.2, FFLUC_R_SQUARED 0.126, read-out: LUCIFERASE INFECTION ASSAY - IC50) was more than 10 µM.
In the case of `O/N=C1/c2ccccc2-c2nnc(-c3cccc(OC(F)(F)F)c3)cc21`, the IC90 worked out at 1.49 µM. Moreover, the IC50 (PBLUC_HILL_SLOPE 1.48, PBLUC_R_SQUARED 0.765, read-out: LUCIFERASE INFECTION ASSAY - IC50) came to 0.337 µM.
With `COc1ccc(C2(c3ccc(OC)cc3)NC(=O)N(CC(=O)c3cc(C)n(C4CC4)c3C)C2=O)cc1`, the IC90 was more than 10 µM. The IC50 (PBLUC_HILL_SLOPE 10.1, PBLUC_R_SQUARED 0.388, read-out: LUCIFERASE INFECTION ASSAY - IC50) came to 8.48 µM.
In the case of `Cc1ccc2nc(NC(=O)c3ccc(Cl)cc3)c(C(=O)NCC(C)C)n2c1`, the IC90 came to 2.91 µM. Also, the IC50 under setting [1] worked out at 2.76 µM.
With `O=C(Nc1ccc(OC(F)(F)F)cc1)Sc1ccc(Cl)s1`, the IC90 was more than 9.33 µM. Further, where the note is “FFLUC_HILL_SLOPE 30.4, FFLUC_R_SQUARED 0.438, HEPG2TOX_HILL_SLOPE 8.9, HEPG2TOX_R_SQUARED 0.733, PBLUC_HILL_SLOPE 2, PBLUC_R_SQUARED 0.693, read-out: LUCIFERASE INFECTION ASSAY - IC50”, the IC50 worked out at 3.61 µM.
With `CCCCc1ccc(NC2=C(Cl)C(=O)c3ccccc3C2=O)cc1`, the IC90 was determined as 3.62 µM. The IC50 (FFLUC_HILL_SLOPE 9.03, FFLUC_R_SQUARED 0.305, HEPG2TOX_HILL_SLOPE 8.62, HEPG2TOX_R_SQUARED 0.549, PBLUC_HILL_SLOPE 14.3, PBLUC_R_SQUARED 0.552, read-out: LUCIFERASE INFECTION ASSAY - IC50) was 3.1 µM.
On to `CN(C)c1ccc(-c2cc3c(cn2)nc(Nc2ccccc2)n3C)cc1`, for which the IC90 worked out at 4.23 µM. Further, where the note is “HEPG2TOX_HILL_SLOPE 15.7, HEPG2TOX_R_SQUARED 0.892, PBLUC_HILL_SLOPE 14.7, PBLUC_R_SQUARED 0.425, read-out: LUCIFERASE INFECTION ASSAY - IC50”, the IC50 came out at 3.64 µM.
On to `CC(NC(=O)c1cc(-c2ccc3c(c2)OCCO3)nc2c1cnn2C(C)C)c1nc2ccccc2[nH]1` (stereo not given), for which the IC90 is more than 10 µM. Also, the IC50 (PBLUC_HILL_SLOPE 1.49, PBLUC_R_SQUARED 0.0633, read-out: LUCIFERASE INFECTION ASSAY - IC50) is more than 10 µM.
As to `COc1ccc(-c2cnc3cnc(-c4cccs4)cn23)cc1`, the IC90 came to 8.31 µM. In addition, the half-maximal inhibitory concentration (IC50) (PBLUC_HILL_SLOPE 3.03, PBLUC_R_SQUARED 0.723, read-out: LUCIFERASE INFECTION ASSAY - IC50) came to 4.02 µM.
As for `Cc1noc2nc(C3CC3)cc(C(=O)N3CCC(C(N)=O)CC3)c12`, the concentration for an effect of 90% (IC90) is more than 10 µM. Under setting [1], the IC50 was more than 10 µM.
With `Cc1cc(C)c2c(C)c(C(=O)Nc3nc4ccccc4s3)sc2n1`, the IC90 worked out at 1.17 µM. Besides, under setting [1], the IC50 worked out at 0.841 µM.
As to `O=C1Cn2c(c(-c3nc4ccccc4[nH]3)c(=O)c3ccccc32)N1`, the IC90 came out at 9.39 µM. For the same compound, the IC50 (HEPG2TOX_HILL_SLOPE 13.7, HEPG2TOX_R_SQUARED 0.894, PBLUC_HILL_SLOPE 11.3, PBLUC_R_SQUARED 0.46, read-out: LUCIFERASE INFECTION ASSAY - IC50) stood at 7.72 µM.
As to `CCCn1nc(C(=O)OCC(=O)c2cc(C)n(CC(F)(F)F)c2C)c2ccccc2c1=O`, the IC90 was more than 10 µM. Further, the IC50 (PBLUC_HILL_SLOPE 0.53, PBLUC_R_SQUARED 0.241, read-out: LUCIFERASE INFECTION ASSAY - IC50) was more than 10 µM.
`Cc1nnc(N(C)CCCc2n[nH]c(N)c2C#N)c2ccccc12`: the IC90 was more than 10 µM. For the same compound, the IC50 under setting [1] is more than 10 µM.
With `CCCN1C(=O)c2[nH]nc(-c3ccccc3O)c2C1c1ccc(Cl)cc1` (stereo not given), the IC90 is more than 8.97 µM. For the same compound, the IC50 (FFLUC_HILL_SLOPE 13.6, FFLUC_R_SQUARED 0.713, HEPG2TOX_HILL_SLOPE 5.14, HEPG2TOX_R_SQUARED 0.579, read-out: LUCIFERASE INFECTION ASSAY - IC50) was more than 8.97 µM.
`NC(=O)C(C(=O)/C=C/c1c(Cl)cccc1Cl)=C1SCS1`: the 90% effect concentration (IC90) was more than 10 µM. The IC50 (PBLUC_HILL_SLOPE 3.86, PBLUC_R_SQUARED 0.315, read-out: LUCIFERASE INFECTION ASSAY - IC50) was found to be 6.18 µM.
Regarding `Cc1ccsc1/C=N/Nc1nc2ccccc2nc1C(F)(F)F`, the IC90 was found to be 9.51 µM. Further, where the note is “HEPG2TOX_HILL_SLOPE 2.86, HEPG2TOX_R_SQUARED 0.79, PBLUC_HILL_SLOPE 19.7, PBLUC_R_SQUARED 0.0461, read-out: LUCIFERASE INFECTION ASSAY - IC50”, the IC50 stood at 8.5 µM.
Turning to `Cc1cc(C(=O)CSc2nnc(Cn3cnc4ccccc43)n2-c2ccccc2Cl)c(C)n1C`, the IC90 was more than 10 µM. Moreover, under setting [1], the IC50 was more than 10 µM.
For the compound `Cn1cc(S(=O)(=O)Nc2cccc(CN3C(=O)CNC3=O)c2)cc1C(N)=O`, the IC90 was more than 10 µM. Further, under setting [1], the IC50 is more than 10 µM.
With `CC(C)(O)C#Cc1ccc(/C=N/Nc2ccc(I)cc2)cc1`, the IC90 is more than 8.16 µM. For the same compound, for the setting “PBLUC_HILL_SLOPE 9.96, PBLUC_R_SQUARED 0.415, read-out: LUCIFERASE INFECTION ASSAY - IC50”, the IC50 was 7.16 µM.
For `Cc1ccc(C(=O)NN(C)c2nc3ccccc3nc2C(F)(F)F)cc1`, the IC90 is 8.54 µM. Moreover, the IC50 (HEPG2TOX_HILL_SLOPE 2.8, HEPG2TOX_R_SQUARED 0.955, PBLUC_HILL_SLOPE 3.11, PBLUC_R_SQUARED 0.656, read-out: LUCIFERASE INFECTION ASSAY - IC50) is 4.21 µM.
